Key:
Type in all cases: cell-based, human
[1] = system: IκBα phosphorylation and degradation in MM.1S cells; assay: Immunoblot of IκBα phosphorylation and degradation triggered by TNFα in MM.1S cells
Description: (§1) MM cells were cultured with PS-341 or compound 1; harvested; washed; and lysed using lysis buffer: 50 mM Tris-HCl (pH 7.4), 150 mM NaCl, 1% NP-40, 5 mM EDTA, 5 mM NaF, 2 mM Na3VO4, 1 mM PMSF, 5 μg/mL leupeptin, and 5 μg/mL aprotinin. For detection of phospho-IκBα, IκBα, phospho-MAPK, phospho-STAT3, ERK2 or alpha-tubulin, cell lysates were subjected SDS-PAGE, transferred to PVDF membrane (Bio-Rad Laboratories, Hercules, Calif.), and immunoblotted with anti-phospho-IκBα, -IκBα, -phospho-MAPK, or -phospho-STAT3 Abs (Cell Signaling, Beverly, Mass.), and anti-alpha-tubulin (Sigma) Abs.
Inhibition of IκBα phosphorylation by compound 1 was assayed in MM.1S and patient MM cells triggered by TNFα. […] To study the dose-dependent effect of compound 1, MM.1S cells were pre-treated with 1.25-40 μM compound 1 for 90 min, and then stimulated by TNFα (5 ng/mL).
The effect of Dex, compound 1, PS-341 and/or IL-6 on TNFα induced phosphorylation of IκBα in MM.1S cells was next examined. […] In contrast compound 1, in the presence or absence of IL-6, inhibits phosphorylation of IκBα. Dex inhibits TNFα-induced degradation of IκBα, whereas IL-6 blocks this effect. Both PS-341 and compound 1 inhibit degradation of IκBα, in the presence or absence of IL-6.

[2] = system: NF-κB activation in MM.1S cells; assay: Electrophoretic mobility shift assay (EMSA) of NF-κB activation in MM.1S cells
Description: Electrophoretic mobility shift analyses (EMSA) were carried out as in previous studies (Hideshima et al., Oncogene 20:4519 (2001); Hideshima et al., Cancer Res. 61:3071 (2001)). Briefly, MM.1S cells were pre-incubated with PS-341 (5 μM for 1 h) and compound 1 (10 μM for 90 min) before stimulation with TNFα (5 ng/mL) for 10 or 20 min. Cells were then pelleted, resuspended in 400 μL of hypotonic lysis buffer (20 mM HEPES, pH 7.9, 10 mM KCl, 1 mM EDTA, 0.2% Triton X-100, 1 mM Na3VO4, 5 mM NaF, 1 mM PMSF, 5 μg/mL leupeptin, 5 μg/mL aprotinin), and kept on ice for 20 min. After centrifugation (14000 g for 5 min) at 4° C., the nuclear pellet was extracted with 100 μL hypertonic lysis buffer (20 mM HEPES, pH 7.9, 400 mM NaCl, 1 mM EDTA, 1 mM Na3VO4, 5 mM NaF, 1 mM PMSF, 5 μg/mL leupeptin, 5 μg/mL aprotinin) on ice for 20 min. After centrifugation (14000 g for 5 min) at 4° C., the supernatant was collected as nuclear extract. […]
Since NF-κB activation requires phosphorylation, ubiquitination, and degradation of IκBα, we next examined whether compound 1 could inhibit NF-κB activation, assessed by EMSA. […]

[3] = system: p42/44 MAPK phosphorylation; assay: Immunoblot of IL-6 induced p42/44 MAPK phosphorylation in MM.1S cells; conditions: IL-6 50 ng/mL for 5 min, compound 1 10 μM 90 min, PS-341 5 μM 60 min, FIG. 5
Description: as §1

STAT3 phosphorylation = assay: Immunoblot of IL-6 induced STAT3 phosphorylation in MM.1S cells; conditions: IL-6 50 ng/mL for 5 min, compound 1 10 μM 90 min, FIG. 5
Description: as §1

MM.1S cells [4] = assay: DNA synthesis ([3H]-TdR uptake) in MM.1S cells with Dex, IL-6, Thal or IMiD3; conditions: 48 h
Description: Proliferation was measured as previously described (Hideshima et al., Blood 96:2943 (2000)). MM cells (3×10^4 cells/well) were incubated in 96-well culture plates (Costar, Cambridge, Mass.) in the presence of media, PS-341, compound 1 and/or Dex or recombinant human IL-6 (Genetics Institute, Cambridge, Mass.) for 48 h at 37° C. DNA synthesis was measured by [^3H]-thymidine ([^3H]-TdR, NEN Products, Boston, Mass.) uptake. Cells were pulsed with [^3H]TdR (0.5 μCi/well) during the last 8 h of 48 h cultures. All experiments were performed in triplicate.

MM.1S cells [5] = assay: Growth inhibition / viability by MTT assay in MM.1S cells with TNFα
Description: The inhibitory effect of PS-341 and compound 1 on MM growth was assessed by measuring 3-(4,5-dimethylthiazol-2-yl)-2,5-diphenyl […] bromide (MTT) dye absorbance of the cells. Cells from 48 h cultures were pulsed with […] of 5 mg/mL MTT to each well for the last 4 h of 48 h cultures, followed by 100 μL isopropanol containing 0.04N HCl. Absorbance was measured at 570 nm using a spectrophotometer (Molecular Devices Corp., Sunnyvale Calif.).

## O=C(Nc1cc(Cl)cc2c1[nH]c1cnccc12)c1cccnc1 [compound 1, N-(6-chloro-9H-β-carbolin-8-yl)-nicotinamide]
[1]; Dex 1 μM 18 h, PS-341 5 μM 60 min, compound 1 10 μM 90 min, presence or absence of IL-6, TNFα 5 ng/mL 5 min, FIG. 7
  TNFα-induced phosphorylation of IκBα: inhibits
[1]; Dex 1 μM 18 h, PS-341 5 μM 60 min, compound 1 10 μM 90 min, TNFα 5 ng/mL 5 min, FIG. 7
  TNFα-induced degradation of IκBα: inhibit
[1]; compound 1 pre-treatment 10 μM for 90 min, then TNFα 5 ng/mL, FIG. 1A
  phosphorylation and degradation of IκBα: completely blocked
[1]; pre-treated with 1.25-40 μM for 90 min, then TNFα 5 ng/mL, FIG. 1B
  concentration at which phosphorylation of IκBα was completely inhibited: ≥ 5 µM
[2]; compound 1 2.5-10 μM for 90 min, dose-dependent fashion, FIG. 6C
  NF-κB activation triggered by TNFα (EMSA), dose dependence: inhibits
[2]; pre-treated 10 μM for 90 min, TNFα 5 ng/mL for 0-20 min, FIG. 2
  NF-κB activation (EMSA): completely inhibited
[3]
  p42/44 MAPK phosphorylation: does not inhibit
STAT3 phosphorylation
  STAT3 phosphorylation: does not inhibit
MM.1S cells [4]; compound 1 10 μM, IL-6 20 ng/mL, FIG. 9
  inhibitory effect of IL-6 against IMiD3: neutralized
MM.1S cells [4]; compound 1 0.4-10 μM, Dex 0.1 μM, IL-6 50 ng/mL, FIG. 8C
  protective effect of IL-6 on Dex-induced growth inhibition: abrogated
MM.1S cells [4]; compound 1 1.5-12.5 μM, IL-6 0.5-50 ng/mL, dose dependent, FIG. 8B
  constitutive and IL-6 induced DNA synthesis in MM.1S cells: abrogated
MM.1S cells [4]; compound 1 1.5-50 μM with Dex, FIG. 8A
  effect of compound 1 on Dex inhibition of proliferation: did not enhance
MM.1S cells [5]; Homo sapiens, MM1.S, TNFα 1 ng/mL in the presence of 10 μM compound 1, 48 h
  inhibition at 10 µM: 60%
MM.1S cells [5]; TNFα 0.2 and 1 ng/mL in the presence of compound 1 2.5-10 μM, 48 h, p<0.001, FIG. 11
  viability of MM.1S cells (MTT assay): significantly decreased

From US9248124B2, “Use of inhibitors of IκB kinase for the treatment of cancer” (Millennium Pharmaceuticals, Inc., priority 2001, dated 2016)
